Positions of bridges follow the written chain, without caps; N, C: chain ends. Non-standard residues stand in square brackets, D forms with d. Residues, ends and D or L forms follow the SMILES beside them. S5 = C=CCCC[C@](C)(N)C(=O)O; Nle = CCCC[C@H](N)C(=O)O
Columns and labels:
[1] = system: DocSTm toxin; settings: DocSTm 5 μM, peptide 50 μM; for Average Tm of DocSTm in the presence of peptide: pH 8.0, average ± SD, replicates 3-48 (Table S3)
Procedure: The thermal shift assay was performed using a Mx3005P qPCR System (Agilent) collecting fluorescence data with a temperature ramp of 25 to 95 °C. Samples were prepared in a buffer containing 20 mM K2HPO4 and 50 mM (NH4)2SO4 at pH 8.0, with a final concentration of recombinant Doc protein at 5 μM and Phd peptides at 50 μM. SYPRO Orange dye (Sigma-Aldrich, 5000X stock in DMSO) was used to monitor protein denaturation in a final concentration of 3×. The final sample volume was 20 μL. Each condition was prepared in triplicate in each independent experiment. The melting curves were plotted using GraphPad Prism 9 (GraphPad Software, USA), and the melting temperatures were obtained by fitting the sigmoidal section of the curves to a Boltzmann sigmoid function. For the calculation of thermal shifts ΔTm, the average melting temperature of free DocSTm toxin as determined in the respective peptide measurement cycles was subtracted from the average melting temperature of DocSTm in the presence of the peptide (Table S3).

[2] = system: DocSTm (phosphorylation of EF-TuSTm); assay: Dot blot EF-Tu phosphorylation assay; assay type: biochemical, Salmonella Typhimurium; settings: DocSTm 1 μM, EF-TuSTm 3 μM, peptide 10 μM to 5 nM (3-fold dilutions), 16 h RT, dot blot anti-phosphothreonine; compared at three times the DocSTm concentration; two independent experiments
Procedure: Samples were prepared in assay buffer [50 mM HEPES (pH 7.5), 25 mM (NH4)2SO4, 2 mM TCEP, 2 mM MgCl2, and 1 mM ATP] with a final concentration of recombinant Doc at 1 μM, recombinant EF-Tu at 3 μM, and varying concentrations of synthetic Phd peptides (final concentrations: 10 μM to 5 nM). EF-Tu (3 μM) in assay buffer was used as a negative control (no Doc and Phd peptide), while EF-Tu (3 μM) with Doc (1 μM) in assay buffer was used as a positive control (no Doc inhibitor). The final sample volume was 10 μL. Samples were incubated for 16 h at RT and subsequently spotted on a nitrocellulose membrane. Phosphorylated EF-Tu was detected by immunodecoration using a rabbit monoclonal antiphosphothreonine antibody (Abcam, ab218195) at 1:2000 dilution (1 h at 4 °C), followed by incubation with a goat antirabbit IgG (H + L) HRP conjugate antibody (Advansta) at 1:10,000 dilution (1 h at RT). Chemiluminescence was developed using the HRP Luminata Kit (Merck, WBLUR0100) and captured with an ImageQuant LAS4000 Western blot imaging system (GE HealthCare). Each peptide was tested in two independent experiments.

| SMILES | Average Tm of DocSTm in the presence of peptide [1] [°C] | Inhibition of EF-TuSTm phosphorylation by DocSTm (concentration needed for full inhibition) [2] | ΔTm (thermal shift) of DocSTm in the presence of peptide ([1]; SYPRO Orange 3×, 20 mM K2HPO4, 50 mM (NH4)2SO4, pH 8.0, average Tm with peptide minus average Tm of free DocSTm, mean ± SD) |
| --- | --- | --- | --- |
| CCCC[C@H](NC(=O)[C@H](Cc1c[nH]c2ccccc12)NC(C)=O)C(=O)N[C@@H](CCCNC(=N)N)C(=O)N[C@@H](CC(=O)O)C(=O)N[C@@H](CCC(=O)O)C(=O)N[C@@H](Cc1ccccc1)C(=O)N[C@@H](C)C(=O)N[C@@H](C)C(=O)N[C@H](C(=O)N[C@@H](CCCC)C(=O)N[C@@H](CCCNC(=N)N)C(=O)N[C@H](C(=O)N[C@@H](Cc1c[nH]cn1)C(=O)NCC(=O)N[C@@H](CC(N)=O)C(=O)N[C@@H](CCC(=O)O)C(=O)N[C@@H](CC(C)C)C(=O)N[C@@H](CCCNC(=N)N)C(=O)N[C@@H](CCC(=O)O)C(=O)N[C@@H](CC(C)C)C(=O)N[C@@H](C)C(=O)N[C@@H](CC(=O)O)C(=O)N[C@@H](CCCCN)C(=O)O)C(C)C)[C@@H](C)CC [Peptide 16] (Ac-W[Nle]RDEFAAI[Nle]RVHGNELRELADK-OH) | 65.0 ± 0.4 | fully inhibited |  |
| CCCC[C@H](NC(=O)[C@H](Cc1c[nH]c2ccccc12)NC(C)=O)C(=O)N[C@@H](CCCNC(=N)N)C(=O)N[C@@]1(C)CCCC=CCCC[C@@](C)(C(=O)N[C@H](C(=O)N[C@@H](CCCC)C(=O)N[C@@H](CCCNC(=N)N)C(=O)N[C@H](C(=O)N[C@@H](Cc2c[nH]cn2)C(=O)NCC(=O)N[C@@H](CC(N)=O)C(=O)N[C@@H](CCC(=O)O)C(=O)N[C@@H](CC(C)C)C(=O)N[C@@H](CCCNC(=N)N)C(=O)N[C@@H](CCC(=O)O)C(=O)N[C@@H](CC(C)C)C(=O)N[C@@H](C)C(=O)N[C@@H](CC(=O)O)C(=O)N[C@@H](CCCCN)C(=O)O)C(C)C)[C@@H](C)CC)NC(=O)[C@H](C)NC(=O)[C@H](Cc2ccccc2)NC(=O)[C@H](CCC(=O)O)NC1=O [Peptide 17] (Ac-W[Nle]R[S5]EFA[S5]I[Nle]RVHGNELRELADK-OH; staple 4-8) | 61.3 ± 0.3 | required a higher concentration to achieve full inhibition |  |
| CCCC[C@H](NC(=O)[C@H](Cc1c[nH]c2ccccc12)NC(C)=O)C(=O)N[C@@H](CC(N)=O)C(=O)N[C@@]1(C)CCCC=CCCC[C@@](C)(C(=O)N[C@H](C(=O)N[C@@H](CCCC)C(=O)N[C@@H](C)C(=O)N[C@H](C(=O)N[C@@H](Cc2c[nH]cn2)C(=O)NCC(=O)N[C@@H](CCCNC(=N)N)C(=O)N[C@@H](CCC(N)=O)C(=O)N[C@@H](CC(C)C)C(=O)N[C@@H](CCCNC(=N)N)C(=O)N[C@@H](CCCNC(=N)N)C(=O)N[C@@H](CC(C)C)C(=O)N[C@@H](C)C(=O)N[C@@H](CCCNC(=N)N)C(=O)N[C@@H](CCCCN)C(=O)O)C(C)C)[C@@H](C)CC)NC(=O)[C@H](C)NC(=O)[C@H](Cc2ccccc2)NC(=O)[C@H](CCC(=O)O)NC1=O [Peptide 35] (Ac-W[Nle]N[S5]EFA[S5]I[Nle]AVHGRQLRRLARK-OH; staple 4-8) | 59.9 ± 0.4 |  |  |
| CCCC[C@H](NC(=O)[C@H](Cc1c[nH]c2ccccc12)NC(C)=O)C(=O)N[C@@H](CC(N)=O)C(=O)N[C@@H](CC(N)=O)C(=O)N[C@@H](CCC(=O)O)C(=O)N[C@@H](Cc1ccccc1)C(=O)N[C@@H](C)C(=O)N[C@@]1(C)CCCC=CCCC[C@@](C)(C(=O)N[C@@H](Cc2c[nH]cn2)C(=O)NCC(=O)N[C@@H](CCCNC(=N)N)C(=O)N[C@@H](CCC(N)=O)C(=O)N[C@@H](CC(C)C)C(=O)N[C@@H](CCCNC(=N)N)C(=O)N[C@@H](CCCNC(=N)N)C(=O)N[C@@H](CC(C)C)C(=O)N[C@@H](C)C(=O)N[C@@H](CCCNC(=N)N)C(=O)N[C@@H](CCCCN)C(=O)O)NC(=O)[C@H](C)NC(=O)[C@H](CCCC)NC(=O)[C@H]([C@@H](C)CC)NC1=O [Peptide 37] (Ac-W[Nle]NNEFA[S5]I[Nle]A[S5]HGRQLRRLARK-OH; staple 8-12) | 55.3 ± 1.5 |  | reduced stabilization |

Source: paper PMC10728895, “Stapled Phd Peptides Inhibit Doc Toxin Induced Growth Arrest in Salmonella” (ACS Chemical Biology, 2023)
